Reference: patent publication US20090075898A1, “Complement C3A Derived Peptides and Uses Thereof” (Yeda Research and Development Co. Ltd. at the Weizmann …, priority 2005, published 2009)
Square brackets hold non-standard residues; d marks the D form. Ends that are not written are not given here.

Assays:
RBL-2H3 cells = settings: for Inhibition of IgE-mediated β-hexosaminidase release from RBL-2H3 cells: peptides 5 min prior to suboptimal (5 ng/ml) antigen dose; for Inhibition of IgE-mediated β-hexoseaminidase secretion from RBL-2H3 (FIG. 1B): 250 μg of peptide
[1] = test system: bone marrow derived mast cells (BMMC); experiment: Secretory response (β-hexosaminidase release) of bone marrow derived mast cells; type: cell-based, mouse
Description: Cells. Bone marrow derived mast cells (BMMC) were prepared from Balb/c mice as described by Nagao et al. (Science 212: 333-335, 1981). After 3 weeks, an approximately 95% pure mast cell population was obtained, showing high expression of FcεRI and stem cell factor receptor (c-kit), as measured by flow cytometry.
Secretory response of mast cells.
Similar experiments were carried out using bone-marrow derived mast cells (BMMC). […] The control peptide of the sequence DVSNYITR had no effect on either system.

Lyn = experiment: Phosphorylation of Lyn in RBL-2H3 cells, Western blot; type: cell-based, rat; settings: for Phosphorylation of Lyn: cells stimulated by antigen in the presence of peptide
Description: Immunoprecipitation and Western blot. Mast cells were seeded in 10 cm Petri dishes (7×10^6 cells/dish) and saturated with A2IgE at 37° C. in DMEM overnight. […] The reaction was terminated by 500 μl lysis buffer (1% Triton X-100, 50 mM HEPES, 100 mM NaF, 10 mM EDTA, 2 mM sodium orthovanadate, 10% glycerol, 10 mM sodium pyrophosphate, protease inhibitor cocktail 1:200, pH 7.4) per dish. The cells were scraped and the protein content of the post nuclear supernatants was adjusted to equal values using the Bradford-assay prior to precipitation by PT-66 phosphotyrosine specific antibody coated beads (10 μl beads per sample). The proteins were eluted by sample buffer containing 2-mercaptoethanol and were separated by SDS-PAGE, electrotransferred onto a nitrocellulose membrane and developed using the indicated antibodies and detected by ECL.
(§1) These are known to include phosphorylation by the src-family PTK Lyn of the ITAMs of the FcεRI β and γ subunits.
(§2) The inhibitory action of the peptide C3a31 on the FcεRI coupling cascade was also investigated using the rat mucosal-type RBL-2H3 line.

[2] = test system: passive systemic anaphylaxis in mice; experiment: Passive systemic anaphylaxis, blood histamine; type: in vivo, mouse; settings: peptide solution onto the nostrils before DNP-HSA antigen
Description: Passive Systemic Anaphylaxis. Mice (Balb/c) were anesthetized with 300-400 μl of avertin and injected with 3 μg of the IgE class DNP-specific monoclonal antibody (SPE-7, Sigma) in 200 μl PBS by retroorbital injection (or tail vein). After 24 hours, mice were anesthetized with 300-400 μl of avertin and exposed to ca. 100 μl of the indicated peptide (inhibitory, SEQ ID NO:11, a control reversed peptide of SEQ ID NO:35 or peptide GAKDGNEYI-COOH of SEQ ID NO:36) solution in PBS positioned onto the nostrils. This was followed by injection of the antigen (DNP-derivatized human serum albumin, HSA, 100 μg in 200 μl of PBS) or PBS only, by retroorbital injection (or tail vein). After 1.5 minutes, mice were sacrificed by cervical dislocation and cardiac puncture performed. Heparin-rinsed syringes were now used for aspiration. Blood samples were spun at 4 degrees for 10 minutes at 8000 rpm in tabletop. Histamine was assayed by the Immunotech protocol for competitive ALP assay.
The effect of C3a derived peptides on passive systemic anaphylaxis in mice was examined. […] The reverse peptide denoted C3a55 amide was ineffective (FIG. 5). A control group was treated with a non-relevant peptide having the amino acid sequence GAKDGNEYI-COOH of SEQ ID NO:36 prior to the injection of the antigen DNP-HSA.

FcεRI β chain = experiment: Phosphorylation of FcεRI β chain in RBL-2H3 cells, Western blot; type: cell-based, rat; settings: cells stimulated by antigen in the presence of peptide
Description: Immunoprecipitation and Western blot. Mast cells were seeded in 10 cm Petri dishes (7×10^6 cells/dish) and saturated with A2IgE at 37° C. in DMEM overnight. After washing they were treated with peptides for 5 min and FcεRI was clustered by incubating with 5 ng/ml DNP11-BSA at 37° C. for 2 min. The reaction was terminated by 500 μl lysis buffer (1% Triton X-100, 50 mM HEPES, 100 mM NaF, 10 mM EDTA, 2 mM sodium orthovanadate, 10% glycerol, 10 mM sodium pyrophosphate, protease inhibitor cocktail 1:200, pH 7.4) per dish. The cells were scraped and the protein content of the post nuclear supernatants was adjusted to equal values using the Bradford-assay prior to precipitation by PT-66 phosphotyrosine specific antibody coated beads (10 μl beads per sample). The proteins were eluted by sample buffer containing 2-mercaptoethanol and were separated by SDS-PAGE, electrotransferred onto a nitrocellulose membrane and developed using the indicated antibodies and detected by ECL.
as §1, §2

PAG = PAG phosphorylation in RBL-2H3 cells; type: cell-based, rat
Description: (§3) The inhibitory action of the peptide C3a31 on the FcεRI coupling cascade was also investigated using the rat mucosal-type RBL-2H3 line. Results of these experiments have shown that peptide C3a31 inhibited the phosphorylation of the protein tyrosine kinase Lyn and of the FcεRI β-chain. The inhibition on Lyn phosphorylation was observed after 1 min, and that on PAG phosphorylation (PAG has an important role in the regulation of src family kinases) after 3 min. However, C3a31 was also shown to enhance Lyn phosphorylation after 3 min. In addition, C3a31 inhibited Dok-1 phosphorylation after 5 min, but had no effect after 8 min.

Dok-1 = Dok-1 phosphorylation in RBL-2H3 cells; type: cell-based, rat
Description: as §3

PLCγ-2 = PLCγ-2 phosphorylation in RBL-2H3 cells; type: cell-based, rat
[3] = test system: ovalbumin-sensitized asthmatic mice; experiment: Murine asthma model, lung function by plethysmography; type: in vivo, mouse; settings: peptide aerosol prior to final ovalbumin challenge
Description: (§4) Inhibitory effect of the peptides on pulmonary functions. Mice (Balb/c, female, 8 weeks old) were first sensitized by ip injection of the antigen (Ag) ovalbumin. Thereafter, the mice were challenged 4 times by aerosol inhalation of the same Ag dispersed by nebulizer in a plexiglass chamber for about 20 min at one-week intervals. On day 28, the mice were first treated with an aerosol of the tested peptides dissolved in 0.1 M NaHCO3 and dispersed as above. As a result, the aerosol was inhaled by the animals for about 10 to 20 minutes. After inhalation, the animals were immediately challenged by inhalation (as above) of the sensitizing antigen (5% OVA in PBS) for 20 min. At the end of this treatment, the mice were immediately tested for pulmonary functions in conscious, freely moving state using plethysmography.
The degree of bronchial constriction was monitored by the enhanced pause and its relation to airway resistance, impedance and intrapleural pressure in the mouse. Bronchoalveolar lavage (BAL) samples were obtained from these mice by cannulating the trachea, injecting 0.8 ml ice-cold saline (×2) and subsequently aspirating the BAL fluid. Following these tests, mice were sacrificed using general anesthesia with brevital (1 mg/ml). Their chests wall were opened, blood withdrawn and lungs were perfused with cold PBS and examined for cytology and histology. […]

[4] = test system: ovalbumin-sensitized asthmatic mice; experiment: Murine asthma model, cell distribution in broncho alveolar lavage; type: in vivo, mouse
Description: as §4
The degree of bronchial constriction was monitored by the enhanced pause and its relation to airway resistance, impedance and intrapleural pressure in the mouse. Bronchoalveolar lavage (BAL) samples were obtained from these mice by cannulating the trachea, injecting 0.8 ml ice-cold saline (×2) and subsequently aspirating the BAL fluid. Following these tests, mice were sacrificed using general anesthesia with brevital (1 mg/ml). Their chests wall were opened, blood withdrawn and lungs were perfused with cold PBS and examined for cytology and histology.
Table 3 provides results of analysis of the cells present in bronchi alveolar lavage (BAL) of mice treated by the same protocols as those subjected to analysis of lung function.

## CCNYG (derived from human sequence) [C3a13]
RBL-2H3 cells
  Inhibition of IgE-mediated β-hexosaminidase release from RBL-2H3 cells: shown to inhibit

## D-Ala-D-Ala-Asp-Ser-Ser-Asn-Tyr-Ile-Thr-Arg-NH2 ([dA][dA]DSSNYITR-NH2; N-terminus assumed; SMILES CC[C@H](C)[C@H](NC(=O)[C@H](Cc1ccc(O)cc1)NC(=O)[C@H](CC(N)=O)NC(=O)[C@H](CO)NC(=O)[C@H](CO)NC(=O)[C@H](CC(=O)O)NC(=O)[C@@H](C)NC(=O)[C@@H](C)N)C(=O)N[C@H](C(=O)N[C@@H](CCCNC(=N)N)C(N)=O)[C@@H](C)O) [C3a32]
RBL-2H3 cells
  Inhibition of IgE-mediated β-hexoseaminidase secretion from RBL-2H3 (FIG. 1B): found to inhibit

## DSSNYIR [C3a11]
RBL-2H3 cells
  Inhibition of IgE-mediated β-hexosaminidase release from RBL-2H3 cells: shown to inhibit

## DVSNYITR [Control peptide, reference compound]
[1]
  Inhibition of IgE-mediated secretory response of BMMC: had no effect
[1]; suboptimal antigen-dose
  Inhibitory effect (IC50) on the IgE-mediated degranulation of BMMC: No effect
Lyn
  Phosphorylation of Lyn: had no effect
RBL-2H3 cells
  Inhibition of IgE-mediated β-hexosaminidase release from RBL-2H3 cells: had no effect
RBL-2H3 cells; suboptimal antigen-dose
  Inhibitory effect (IC50) on the IgE-mediated degranulation of RBL-2H3: No effect

## RTIYNSSDS (RTIYNSSDS-NH2) [C3a55, reference compound]
[2]
  Symptoms of passive systemic anaphylaxis, histamine levels in mice blood: ineffective

## Ser-Asp-Ser-Ser-Asn-Tyr-Ile-Thr-Arg-NH2 (SDSSNYITR-NH2) [C3a31]
Lyn; after 1 min
  Lyn phosphorylation after 1 min: inhibition
Lyn; after 3 min
  Lyn phosphorylation after 3 min: enhance
Lyn
  Phosphorylation of Lyn: inhibited
FcεRI β chain
  Phosphorylation of the FcεRI β chain: inhibited
PAG
  PAG phosphorylation after 3 min: inhibition
Dok-1; after 5 min
  Dok-1 phosphorylation after 5 min: inhibited
Dok-1; after 8 min
  Dok-1 phosphorylation after 8 min: had no effect
PLCγ-2
  Phosphorylation of PLCγ-2: inhibited
[2]
  Symptoms of passive systemic anaphylaxis, histamine levels in mice blood: found to reduce
[3]
  Antigen-induced symptoms (lung airway resistance) in asthma model: effective in reducing
[4]; OVA + peptide aerosol
  Eosinophils in BAL: 4%
  Lymphocutes in BAL: 81%
  Macrophages in BAL: 1%
  Mast Cells in BAL: 4%
  Neutrophils in BAL: 13%
[4]; peptide aerosol treatment
  Type of cells detected in the BAL: markedly affected
RBL-2H3 cells
  Inhibition of IgE-mediated β-hexoseaminidase secretion from RBL-2H3 (FIG. 1B): found to inhibit
